We go through 17 compounds from PubChem BioAssay AID248 (DTP/NCI, 2004).

Toxic doses and inconclusive results are not listed.

The assay has as its system L1210 leukemia ip in BDF1 mice, survival T/C. Nature of the assay: NCI In Vivo Anticancer Drug Screen. Data for tumor model L1210 Leukemia (intraperitoneal) in B6D2F1 (BDF1) mice. Particulars: endpoint: mean survival time, higher = longer survival. The procedure, abridged: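 Tumor was transplanted into mice, which were then dosed with test compound or vehicle alone. Survival was recorded for each group, and the treated figure was expressed relative to the control figure.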

Setting [1] is: dose: 100.0 mg/kg/injection, schedule: Q01DX001 (ip), vehicle: other.
The mark [2] stands for this setting: dose: 100.0 mg/kg/injection, schedule: Q04DX003 (ip), vehicle: Klucel (hydroxypropylcellulose) (HPC).
The mark [3] stands for this setting: dose: 200.0 mg/kg/injection, schedule: Q01DX001 (ip), vehicle: other.
Setting [4] is: dose: 200.0 mg/kg/injection, schedule: Q04DX003 (ip), vehicle: Klucel (hydroxypropylcellulose) (HPC).
Where [5] appears, read: dose: 400.0 mg/kg/injection, schedule: Q04DX003 (ip), vehicle: Klucel (hydroxypropylcellulose) (HPC).
Setting [6] is: dose: 100.0 mg/kg/injection, schedule: Q04DX003 (ip), vehicle: saline with Tween-80.
[7] abbreviates: dose: 200.0 mg/kg/injection, schedule: Q04DX003 (ip), vehicle: saline with Tween-80.
[8] abbreviates: dose: 400.0 mg/kg/injection, schedule: Q04DX003 (ip), vehicle: saline with Tween-80.
Where [9] appears, read: dose: 100.0 mg/kg/injection, schedule: Q01DX001 (ip), vehicle: saline.
[10] abbreviates: dose: 100.0 mg/kg/injection, schedule: Q01DX009 (ip), vehicle: Klucel (hydroxypropylcellulose) (HPC).
The mark [11] stands for this setting: dose: 200.0 mg/kg/injection, schedule: Q01DX009 (ip), vehicle: Klucel (hydroxypropylcellulose) (HPC).
[12] abbreviates: dose: 400.0 mg/kg/injection, schedule: Q01DX009 (ip), vehicle: Klucel (hydroxypropylcellulose) (HPC).
[13] abbreviates: dose: 100.0 mg/kg/injection, schedule: Q01DX001 (ip), vehicle: Klucel (hydroxypropylcellulose) (HPC).
Where [14] appears, read: dose: 200.0 mg/kg/injection, schedule: Q01DX001 (ip), vehicle: Klucel (hydroxypropylcellulose) (HPC).
[15] abbreviates: dose: 400.0 mg/kg/injection, schedule: Q01DX001 (ip), vehicle: Klucel (hydroxypropylcellulose) (HPC).

Regarding `C#CCn1cnc2c(=S)nc[nH]c21`, the T/C (dose: 10.0 mg/kg/injection, schedule: Q01DX009 (ip), vehicle: saline) is 104 % of control; the T/C (dose: 15.0 mg/kg/injection, schedule: Q04DX003 (ip), vehicle: saline) was 103 % of control; the T/C (dose: 25.0 mg/kg/injection, schedule: Q01DX009 (ip), vehicle: saline) was 114 % of control; the T/C (dose: 30.0 mg/kg/injection, schedule: Q04DX003 (ip), vehicle: saline) was 111 % of control; the T/C (dose: 52.0 mg/kg/injection, schedule: Q04DX003 (ip), vehicle: Klucel (hydroxypropylcellulose) (HPC)) is 110 % of control; the T/C (dose: 60.0 mg/kg/injection, schedule: Q04DX003 (ip), vehicle: saline) is 111 % of control. Further, the T/C was 115 % of control (dose: 78.0 mg/kg/injection, schedule: Q04DX003 (ip), vehicle: Klucel (hydroxypropylcellulose) (HPC)); 119 % of control (dose: 90.0 mg/kg/injection, schedule: Q01DX009 (ip), vehicle: saline); 104 % of control under setting [1]; 113 % of control under setting [2]; 115 % of control (dose: 118.0 mg/kg/injection, schedule: Q04DX003 (ip), vehicle: Klucel (hydroxypropylcellulose) (HPC)); 93 % of control (dose: 175.0 mg/kg/injection, schedule: Q01DX009 (ip), vehicle: saline). Besides, the T/C is 108 % of control (dose: 177.0 mg/kg/injection, schedule: Q01DX001 (ip), vehicle: Klucel (hydroxypropylcellulose) (HPC)); 155 % of control (dose: 177.0 mg/kg/injection, schedule: Q04DX003 (ip), vehicle: Klucel (hydroxypropylcellulose) (HPC)); 150 % of control (dose: 177.0 mg/kg/injection, schedule: Q04DX003 (ip), vehicle: saline); 121 % of control under setting [3]; 124 % of control under setting [4]; 162 % of control (dose: 266.0 mg/kg/injection, schedule: Q04DX003 (ip), vehicle: Klucel (hydroxypropylcellulose) (HPC)). Moreover, the T/C by setting is: (dose: 266.0 mg/kg/injection, schedule: Q04DX003 (ip), vehicle: saline) 116 % of control; under setting [5], 157 % of control; (dose: 400.0 mg/kg/injection, schedule: Q04DX003 (ip), vehicle: saline) 114 % of control; (dose: 600.0 mg/kg/injection, schedule: Q01DX001 (ip), vehicle: Klucel (hydroxypropylcellulose) (HPC)) 152 % of control; (dose: 600.0 mg/kg/injection, schedule: Q01DX001 (ip), vehicle: other) 156 % of control; (dose: 600.0 mg/kg/injection, schedule: Q04DX003 (ip), vehicle: saline) 112 % of control.

For the compound `CC(C(O)c1cccs1)C(O)(C(F)(F)F)C(F)(F)F` (configuration not stated), the T/C is, setting by setting: under setting [6], 102 % of control; under setting [7], 91 % of control; under setting [8], 88 % of control.

For the compound `O=[N+]([O-])c1ccc(N2CCCCC2)nc1`, the T/C (dose: 50.0 mg/kg/injection, schedule: Q01DX001 (ip), vehicle: carboxymethylcellulose (CMC)) is 115 % of control; the T/C (dose: 100.0 mg/kg/injection, schedule: Q01DX001 (ip), vehicle: carboxymethylcellulose (CMC)) was 91 % of control; the T/C (dose: 200.0 mg/kg/injection, schedule: Q01DX001 (ip), vehicle: carboxymethylcellulose (CMC)) is 115 % of control; the T/C (dose: 400.0 mg/kg/injection, schedule: Q01DX001 (ip), vehicle: carboxymethylcellulose (CMC)) is 97 % of control.

As to `CC(=O)OCC1C2CCC(C2)C1C` (configuration not stated), the T/C (dose: 75.0 mg/kg/injection, schedule: Q01DX001 (ip), vehicle: acetone) was 95 % of control; the T/C (dose: 150.0 mg/kg/injection, schedule: Q01DX001 (ip), vehicle: acetone) is 101 % of control; the T/C (dose: 300.0 mg/kg/injection, schedule: Q01DX001 (ip), vehicle: acetone) was 114 % of control.

For `CC1=CCC(=C(C)C)C1C(=O)NC1CCCCC1` (configuration not stated), the T/C was 97 % of control under setting [9]; 105 % of control (dose: 100.0 mg/kg/injection, schedule: Q01DX009 (ip), vehicle: propolene glycol); 109 % of control (dose: 200.0 mg/kg/injection, schedule: Q01DX009 (ip), vehicle: propolene glycol); 100 % of control (dose: 400.0 mg/kg/injection, schedule: Q01DX001 (ip), vehicle: saline); 106 % of control (dose: 400.0 mg/kg/injection, schedule: Q01DX009 (ip), vehicle: propolene glycol).

As for `CC1(C)N=C(N)N=C(N)N1c1cccc(OCCOc2ccc([N+](=O)[O-])cc2)c1`, the T/C was 101 % of control under setting [9] and 95 % of control (dose: 200.0 mg/kg/injection, schedule: Q01DX001 (ip), vehicle: saline).

Take `O=C(CC(O)(c1ccccc1)c1ccccc1)Nc1ccccn1`: the T/C under setting [1] is 89 % of control and the T/C under setting [3] was 89 % of control.

Regarding `O=C(Nc1ccc(Cl)c(Cl)c1)OCC1CC2C=CC1C2` (configuration not stated), the T/C is, setting by setting: under setting [10], 100 % of control; under setting [11], 97 % of control; under setting [12], 106 % of control.

With `Cc1c(Cl)cccc1NC(=O)c1cccc(C(=O)Nc2cccc(Cl)c2C)c1`, the T/C by setting is: under setting [10], 112 % of control; under setting [2], 91 % of control; under setting [11], 93 % of control; under setting [4], 90 % of control; under setting [12], 88 % of control; under setting [5], 98 % of control.

Turning to `CC(CN(C)N=O)C1CCC2C3CC=C4CC(O)CCC4(C)C3CCC12C` (configuration not stated), the T/C runs as follows: (dose: 100.0 mg/kg/injection, schedule: Q01DX001 (sc), vehicle: steriod suspending solution) 96 % of control; (dose: 200.0 mg/kg/injection, schedule: Q01DX001 (sc), vehicle: steriod suspending solution) 96 % of control; (dose: 400.0 mg/kg/injection, schedule: Q01DX001 (sc), vehicle: steriod suspending solution) 100 % of control.

With `Cc1ccc(S(=O)(=O)NNC(=O)C2(C)CC2(C)C(=O)O)cc1` (configuration not stated), the T/C is, setting by setting: under setting [13], 100 % of control; under setting [2], 91 % of control; under setting [6], 96 % of control; under setting [14], 93 % of control; under setting [4], 89 % of control; under setting [7], 93 % of control. In addition, the T/C under setting [15] was 101 % of control, the T/C under setting [5] is 100 % of control and the T/C under setting [8] was 86 % of control.

As to `CCOC(=O)n1ccc2nc3ccccc3cc21`, the T/C is, setting by setting: under setting [13], 100 % of control; under setting [14], 105 % of control; under setting [15], 90 % of control.

Regarding `COC(=O)c1ccc(N(C)CC2=Nc3c(nc(N)nc3SCc3ccccc3)NC2)cc1`, the T/C runs as follows: (dose: 100.0 mg/kg/injection, schedule: Q01DX001 (ip), vehicle: saline with Tween-80) 97 % of control; (dose: 200.0 mg/kg/injection, schedule: Q01DX001 (ip), vehicle: saline with Tween-80) 108 % of control; (dose: 400.0 mg/kg/injection, schedule: Q01DX001 (ip), vehicle: saline with Tween-80) 101 % of control.

As for `CCN(CC#CCOc1ccc(Cl)cc1Cl)c1ccccc1`, the T/C (dose: 100.0 mg/kg/injection, schedule: Q04DX002 (ip), vehicle: Klucel (hydroxypropylcellulose) (HPC)) is 109 % of control; the T/C (dose: 200.0 mg/kg/injection, schedule: Q04DX002 (ip), vehicle: Klucel (hydroxypropylcellulose) (HPC)) was 98 % of control; the T/C (dose: 400.0 mg/kg/injection, schedule: Q04DX002 (ip), vehicle: Klucel (hydroxypropylcellulose) (HPC)) was 102 % of control.

As for `O=[N+]([O-])c1ccc2c([N+](=O)[O-])ccc3c2c1CC3`, the T/C is 94 % of control (dose: 100.0 mg/kg/injection, schedule: Q01DX009 (ip), vehicle: saline with Tween-80); 90 % of control (dose: 200.0 mg/kg/injection, schedule: Q01DX009 (ip), vehicle: saline with Tween-80); 92 % of control (dose: 400.0 mg/kg/injection, schedule: Q01DX009 (ip), vehicle: saline with Tween-80).

For `COC(=O)c1ccccc1NC(=O)c1cccc(F)c1`, the T/C by setting is: under setting [10], 95 % of control; under setting [11], 105 % of control; under setting [12], 103 % of control.

Turning to `Cc1cccc(C)c1NC(=S)N(CCC#N)C(C)C`, the T/C is 103 % of control under setting [10], 106 % of control under setting [11] and 96 % of control under setting [12].
